Values quoted from earlier work, collected in patent publication US11730747B2, “Drink product and use thereof” (HYGIA PHARMACEUTICALS, LLC, priority 2013, dated 2023).
pEC50: −log10 of the molar value.

Tests used:
large intestinal cancer = settings: rats; treatment begun 5 months after carcinogenic induction with azoxymethane
JB6 cells = settings: IP6 0.5-2 mM, three-dimensional growth in soft agar
PC-3 = PC-3 cells
[1] = tested on: human colon cancer cell lines
pulmonary adenomas = settings: diet containing 3% myo-inositol, fed beginning 1 week after exposure to benzo[a]pyrene
bronchial dysplasia = settings: smokers
PI3K = settings: lung adenocarcinoma cell line

| SMILES | large intestinal cancers (large intestinal cancer) | inhibition of EGF or TPA-induced cell transformation (JB6 cells) | levels of integrin linked kinase 1 (ILK1) and cyclin D1 (PC-3) | levels of phosphorylated AKT and GSK3α/β (PC-3) | phosphorylation levels of the p85 subunit of PI3K at Tyr458 and phosphoinositide-dependent kinase-1 at Ser241 (PC-3) | growth of human colon cancer cell lines in vitro [1] | reduction of the number of pulmonary adenomas (pulmonary adenomas) [%] | reduction in the systolic and diastolic blood pressures (average) (bronchial dysplasia; 18 grams per day for 3 months) [mm Hg] | rate of regression of preexisting dysplastic lesions (bronchial dysplasia; 18 grams per day for 3 months, versus 48%, P=0.014) [%] | maximum tolerated dose (bronchial dysplasia; oral administration, dose escalation study for one month) [grams per day] | side effects (bronchial dysplasia; oral myo-inositol) | PI3K activity (PI3K) | pEC50 (PI3K; read-out: median effective concentration (ECs) for PI3K inhibition) |
| --- | --- | --- | --- | --- | --- | --- | --- | --- | --- | --- | --- | --- | --- |
| O=P(O)(O)O[C@H]1[C@H](OP(=O)(O)O)[C@@H](OP(=O)(O)O)[C@H](OP(=O)(O)O)[C@@H](OP(=O)(O)O)[C@H]1OP(=O)(O)O [IP6, inositol-1,2,3,4,5,6-hexakisphosphate] | significantly (p=0.02) reducing | dose-dependent inhibition | strong decrease | reduced levels | reduced phosphorylation levels | inhibits growth | – | – | – | – | – | – | – |
| O[C@H]1[C@H](O)[C@@H](O)[C@H](O)[C@@H](O)[C@H]1O [myoinositol] | – | – | – | – | – | – | 40 | 10 | 91 | 18 | mild and mainly gastrointestinal in nature | dose-dependent decreases | 7.14 |
